One assay has as its system TNF-α. Kind of assay: TNF-α secretion inhibition in LPS-treated THP-1 cells (ELISA). It counts as cell-based. The conditions noted are these: Homo sapiens, compound 0.5 μM, LPS 500 ng/ml, 24 hours, read-out: THP-1/TNF-a (% inhib). In outline:
(§1)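 Human monocytic THP-1 cells were pre-cultured 16 h at 37° C., then treated with compound at 0.5 μM final, followed by LPS at 500 ng/ml final. After 24 h, IL-6 and TNF-α in culture supernatant were quantified by ELISA with absorbance read at 450 nm.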
On the technique in general: An ELISA detects its analyte on a solid surface through an enzyme-linked reagent.

In the next assay the test system is THP-1. Kind of assay: THP-1 GI50 (Table 4, method not given). It counts as cell-based. As to conditions: Homo sapiens; THP-1 cells.
Another assay relates to SHP-77. Kind of assay: SHP-77 cancer cell proliferation inhibition (Cell Titer-Glo). The conditions noted are these: Homo sapiens, SHP77, SHP-77 small cell lung cancer cell line, 72 hours. It counts as cell-based. In outline: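 GI50 comes from CellTiter-Glo luminescence, read 10 min after reagent addition at RT, following 72 h compound treatment. Eleven concentrations were used (⅓ steps, highest 10 μM final) on 2000 cells/well. MDA-MB-231 and MDA-MB-468 were grown in DMEM, SHP-77 in RPMI.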
(In general: Cellular ATP, detected with luciferase, serves as a proxy for viable cell number.)

The next assay relates to IL-6. Kind of assay: IL-6 secretion inhibition in LPS-treated THP-1 cells (ELISA). It counts as cell-based. The conditions noted are these: Homo sapiens, compound 0.5 μM, LPS 500 ng/ml, 24 hours, read-out: THP1/IL6 (% inhib). In outline: as §1
The target in assay [1] is T1, LRRK2, LRRK2 (G2019S), DYRK1, CLK1 and TTK kinases (Homo sapiens, UniProt P49759).
T1 construct: CLK1 IC50 (marked with *); other: CLK1; Kinase HotSpot service (Reaction Biology), ATP 10 uM
T1 sequence (P49759 whole entry, stated change not applied): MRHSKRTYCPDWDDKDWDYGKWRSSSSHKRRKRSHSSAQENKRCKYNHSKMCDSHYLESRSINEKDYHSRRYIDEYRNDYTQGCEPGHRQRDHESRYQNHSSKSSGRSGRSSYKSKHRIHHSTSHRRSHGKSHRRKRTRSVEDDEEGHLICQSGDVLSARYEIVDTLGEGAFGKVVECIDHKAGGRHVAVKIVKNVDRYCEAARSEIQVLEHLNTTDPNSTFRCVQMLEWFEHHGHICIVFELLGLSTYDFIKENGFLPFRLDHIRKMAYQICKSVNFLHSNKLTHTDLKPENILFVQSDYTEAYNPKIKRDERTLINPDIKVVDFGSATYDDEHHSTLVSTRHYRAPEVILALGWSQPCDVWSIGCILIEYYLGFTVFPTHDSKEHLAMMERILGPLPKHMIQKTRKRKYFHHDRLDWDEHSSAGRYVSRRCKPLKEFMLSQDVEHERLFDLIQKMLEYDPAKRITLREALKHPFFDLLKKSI
Description: Enzyme IC50 by Kinase HotSpot service (Reaction Biology Corporation), values marked with *. As to conditions: CLK1, ATP 10 uM. It counts as biochemical. In outline:
(§2)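 Radiometric-service kinase assays (Reaction Biology HotSpot protocol) run at 10 uM ATP under uniform conditions. Compounds tested as 3-fold dilution series from a top concentration of […] to give IC50.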

The target of assay [2] is T2, LRRK2, LRRK2 (G2019S), DYRK1, CLK1 and TTK kinases (Homo sapiens, UniProt Q5S007).
T2 construct: LRRK2 IC50 (marked with *); other: LRRK2; Kinase HotSpot service (Reaction Biology), ATP 10 uM
T2 sequence (Q5S007 whole entry G2019S): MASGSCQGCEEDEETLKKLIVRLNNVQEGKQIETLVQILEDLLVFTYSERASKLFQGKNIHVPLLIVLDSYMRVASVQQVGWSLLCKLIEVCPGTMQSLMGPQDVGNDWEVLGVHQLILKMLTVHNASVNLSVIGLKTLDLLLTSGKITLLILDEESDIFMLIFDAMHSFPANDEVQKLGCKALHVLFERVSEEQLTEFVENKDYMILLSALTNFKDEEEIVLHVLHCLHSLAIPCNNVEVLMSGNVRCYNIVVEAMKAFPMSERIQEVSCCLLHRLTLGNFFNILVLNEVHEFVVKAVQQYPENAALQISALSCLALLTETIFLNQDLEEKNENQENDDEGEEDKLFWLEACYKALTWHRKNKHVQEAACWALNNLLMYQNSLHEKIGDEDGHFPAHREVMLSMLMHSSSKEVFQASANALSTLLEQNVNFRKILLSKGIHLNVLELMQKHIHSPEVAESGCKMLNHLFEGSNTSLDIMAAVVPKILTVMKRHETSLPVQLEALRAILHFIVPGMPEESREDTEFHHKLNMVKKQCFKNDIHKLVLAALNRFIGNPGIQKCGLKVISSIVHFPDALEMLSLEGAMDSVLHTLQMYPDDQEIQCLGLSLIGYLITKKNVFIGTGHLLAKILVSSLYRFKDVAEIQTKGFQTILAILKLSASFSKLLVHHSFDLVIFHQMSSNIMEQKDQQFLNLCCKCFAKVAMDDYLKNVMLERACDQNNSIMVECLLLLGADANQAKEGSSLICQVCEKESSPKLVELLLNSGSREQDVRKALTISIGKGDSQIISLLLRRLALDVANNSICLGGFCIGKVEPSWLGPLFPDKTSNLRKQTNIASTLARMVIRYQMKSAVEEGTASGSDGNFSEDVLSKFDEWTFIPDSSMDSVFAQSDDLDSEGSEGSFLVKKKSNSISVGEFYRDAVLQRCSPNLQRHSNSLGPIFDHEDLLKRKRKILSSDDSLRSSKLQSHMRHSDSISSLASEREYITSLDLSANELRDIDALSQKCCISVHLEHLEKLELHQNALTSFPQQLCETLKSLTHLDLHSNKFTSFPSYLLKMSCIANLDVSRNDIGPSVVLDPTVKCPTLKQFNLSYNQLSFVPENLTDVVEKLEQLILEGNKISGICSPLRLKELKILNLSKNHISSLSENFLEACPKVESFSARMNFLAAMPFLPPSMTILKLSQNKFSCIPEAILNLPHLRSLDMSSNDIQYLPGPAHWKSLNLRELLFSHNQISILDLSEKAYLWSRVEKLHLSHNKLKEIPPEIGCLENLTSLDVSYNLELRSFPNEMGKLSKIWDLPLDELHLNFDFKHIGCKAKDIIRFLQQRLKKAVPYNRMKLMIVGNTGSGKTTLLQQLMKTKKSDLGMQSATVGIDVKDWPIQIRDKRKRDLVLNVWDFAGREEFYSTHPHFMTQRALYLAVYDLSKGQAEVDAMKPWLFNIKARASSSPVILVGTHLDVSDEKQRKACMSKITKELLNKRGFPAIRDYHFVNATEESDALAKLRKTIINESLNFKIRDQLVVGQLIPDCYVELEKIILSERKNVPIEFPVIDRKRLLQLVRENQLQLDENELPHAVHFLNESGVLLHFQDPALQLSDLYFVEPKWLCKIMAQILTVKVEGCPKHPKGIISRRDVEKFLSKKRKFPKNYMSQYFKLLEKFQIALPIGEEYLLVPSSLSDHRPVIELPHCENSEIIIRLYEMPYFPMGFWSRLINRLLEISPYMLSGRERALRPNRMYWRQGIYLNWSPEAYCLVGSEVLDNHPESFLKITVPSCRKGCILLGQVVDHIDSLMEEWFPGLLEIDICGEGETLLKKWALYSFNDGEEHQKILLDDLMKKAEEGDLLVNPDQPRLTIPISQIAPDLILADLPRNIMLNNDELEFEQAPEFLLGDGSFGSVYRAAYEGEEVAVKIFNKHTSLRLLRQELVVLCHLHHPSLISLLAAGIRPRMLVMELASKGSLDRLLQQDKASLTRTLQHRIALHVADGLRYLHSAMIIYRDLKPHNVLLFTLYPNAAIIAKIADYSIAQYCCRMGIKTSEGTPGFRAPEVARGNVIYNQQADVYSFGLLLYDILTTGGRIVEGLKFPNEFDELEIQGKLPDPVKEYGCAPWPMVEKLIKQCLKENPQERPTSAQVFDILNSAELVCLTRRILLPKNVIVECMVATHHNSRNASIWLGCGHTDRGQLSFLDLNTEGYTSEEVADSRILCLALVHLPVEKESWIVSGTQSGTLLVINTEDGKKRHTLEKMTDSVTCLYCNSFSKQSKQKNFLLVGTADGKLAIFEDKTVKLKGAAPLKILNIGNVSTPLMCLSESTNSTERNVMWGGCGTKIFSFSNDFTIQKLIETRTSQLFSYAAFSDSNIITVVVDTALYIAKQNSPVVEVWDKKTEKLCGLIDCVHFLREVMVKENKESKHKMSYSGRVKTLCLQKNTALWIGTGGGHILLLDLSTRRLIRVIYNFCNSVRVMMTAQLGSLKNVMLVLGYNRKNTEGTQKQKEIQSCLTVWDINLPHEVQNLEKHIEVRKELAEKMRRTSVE
The assay is described as above. It counts as biochemical. As to conditions: LRRK2, ATP 10 uM. The method, boiled down: as §2

Molecules are shown by their SMILES.

On to `CCNc1cc(Nc2ccc(C(=O)N3CCC(N4CCOCC4)CC3)c3c2OCO3)nc2[nH]cc(C(F)(F)F)c12` [Example 37, (7-((4-(ethylamino)-3-(trifluoromethyl)-1H-pyrrolo[2,3-b]pyridin-6-yl)amino)benzo[d][1,3]dioxol-4-yl)(4-morpholinopiperidin-1-yl)methanone], for which, in the assay with TNF-α, the inhibition at 0.5 µM turned out to be 100%. Further, the GI50 in the assay on THP-1 was determined as 14.4 µM.
Turning to `CCNc1cc(Nc2ccc(C(=O)N3C[C@@H]4C[C@H]3CO4)c3c2OCCO3)nc2[nH]cc(C(F)(F)F)c12` [Example 44, ((1S,4S)-2-oxa-5-azabicyclo[2.2.1]heptan-5-yl)(8-((4-(ethylamino)-3-(trifluoromethyl)-1H-pyrrolo[2,3-b]pyridin-6-yl)amino)-2,3-dihydrobenzo[b] [1,4]dioxin-5-yl)methanone], the values for the GI50 in the assay with SHP-77 and in the assay on THP-1 were 301 to 1000 nM and 146 µM, respectively. Besides, the results for the inhibition at 0.5 µM in the assay on IL-6 and in the assay on TNF-α were 47.9% and 100%, respectively.
As for `CCNc1cc(Nc2ccc(P3(=O)CCN(C(C)=O)CC3)cc2OC)nc2[nH]cc(C(F)(F)F)c12` [Example 42, 1-(4-(4-((4-(ethylamino)-3-(trifluoromethyl)-1H-pyrrolo[2,3-b]pyridin-6-yl)amino)-3-methoxyphenyl)-4-oxido-1,4-azaphosphinan-1-yl)ethan-1-one], the GI50 in the assay on SHP-77 is 301 to 1000 nM; in the assay on THP-1, 16.3 µM. The figures for the inhibition at 0.5 µM with IL-6 and in the assay with TNF-α were 48.3% and 35.7%, respectively.
On the same counts, the results for `COCCNc1cc(Nc2ccc(P3(=O)CCN(C4CC4)CC3)cc2OC)nc2[nH]cc(C(F)(F)F)c12` [Example 207, 1-cyclopropyl-4-(3-methoxy-4-((4-((2-methoxyethyl)amino)-3-(trifluoromethyl)-1H-pyrrolo[2,3-b]pyridin-6-yl)amino)phenyl)-1,4-azaphosphinane 4-oxide] are 301 to 1000 nM, 9.39 µM, 41.7% and 39.8%.
Regarding `CNc1cc(Nc2ccc(S(=O)(=O)N3CCC(N4CCOCC4)CC3)cc2OC)nc2[nH]cc(C(F)(F)F)c12` [Example 184, N^6-(2-methoxy-4-((4-morpholinopiperidin-1-yl)sulfonyl)phenyl)-N^4-methyl-3-(trifluoromethyl)-1H-pyrrolo[2,3-b]pyridine-4,6-diamine], the IC50 in assay [1] and in assay [2] was less than 100 nM each time. In addition, in the assay with SHP-77, the GI50 lay in the range of 101 to 300 nM.

A word on the GI50: it is the concentration at which growth is held to half of that of the control. In general, IC50 refers to the midpoint of a concentration-inhibition curve. Low values mean greater potency, high ones weaker potency.

Source of the values: US12240844B2 (Voronoi, Inc., priority 2019, dated 2025).
